Measured values published in US20080021004A1, “Sapogenin derivatives and their use in the treatment of cognitive dysfunction” (PHYTOPHARM PLC, priority 1999, published 2008).

Tested on: m2 receptors on CHO cells
Assay: Expression of m2 receptors on transfected CHO cells (tritiated QNB binding)
Format: cell-based, human
Conditions: DMSO control
Excerpt: Sapogenin derivatives of the present invention have also been tested for activity in a number of in-vitro assays. The assays/experiments that were considered of key importance in determining possible activity in the elevation of membrane bound receptor numbers were as follows: • Chinese hamster ovary (CHO) cells transfected with the DNA fragment coding for a muscarinic receptor. The cell line used for the majority of the experiments was a cell line expressing the m2 receptor.
The effects of various compounds on the expression of m2 receptors on CHO cells transfected with DNA for the m2 receptor were investigated. Receptor numbers were assayed using tritiated QNB binding and subtracting non-specific binding. Compounds were dissolved in DMSO and DMSO was used as a control. Compounds were tested at a range of final concentrations. Compounds were also tested in the presence and absence of tamoxifen to try to distinguish an oestrogen receptor mediated mechanism.
Compounds are active when the effect on receptor expression given as a percentage increase compared to control is more than 15%.

Row | Compound | Activity (effect on expression of m2 receptors, percentage increase compared to control) (molar concentration 10^−5) | Activity (effect on expression of m2 receptors, percentage increase compared to control) (molar concentration 10^−6)
1 | CC1CCC2(OC1)OC1CC3C4CC[C@@H]5CC(O)CC[C@]5(C)C4C(=O)C[C@]3(C)C1C2C (stereo partly shown) | Not Active | 
2 | CC1CCC2(OC1)OC1CC3C4CC[C@H]5CC(O)CC[C@]5(C)C4CC[C@]3(C)C1C2C (stereo partly shown) | Not Active Not Active | Not Active Not Active
3 | CC(CO)CCCC(C)C1C(O)CC2C3CC[C@H]4CC(O)CC[C@]4(C)C3CC[C@@]21C (stereo partly shown) | Active | 
4 | CC1C(=O)OC2CC3C4CC[C@H]5CC(O)CC[C@]5(C)C4CC[C@]3(C)C21 (stereo partly shown) | Not Active | 
5 | CC1CCC2(OC1)OC1CC3C4CC=C5CC(O)C[C@@H](O)[C@]5(C)C4CC[C@]3(C)C1C2C (stereo partly shown) | Not Active Not Active | Not Active Not Active
6 | CC1CCC2(OC1)OC1CC3C4CC=C5CC(O)CC[C@]5(C)C4CC[C@]3(C)C1C2C (stereo partly shown) | Not Active Not Active | Not Active Not Active
7 | CC1CCC2(OC1)OC1CC3C4CC[C@@H]5CC(O)[C@H](O)C[C@]5(C)C4CC[C@]3(C)C1C2C (stereo partly shown) | Not Active | 
